We go through 29 compounds from US8470837B2, “MAPK/ERK kinase inhibitors” (Takeda Pharmaceutical Company Limted, priority 2006, dated 2013).

The target in the assay is MEK1 (Homo sapiens, UniProt Q02750, DEL30-49/S218E/S222D). As to the kind of experiment: MEK1 inhibition, fluorescence polarization assay with IMAP beads (ERK1 / FI-Erktide coupled).
Chain of MEK1 (Q02750 with tags, fused parts or gaps DEL30-49/S218E/S222D): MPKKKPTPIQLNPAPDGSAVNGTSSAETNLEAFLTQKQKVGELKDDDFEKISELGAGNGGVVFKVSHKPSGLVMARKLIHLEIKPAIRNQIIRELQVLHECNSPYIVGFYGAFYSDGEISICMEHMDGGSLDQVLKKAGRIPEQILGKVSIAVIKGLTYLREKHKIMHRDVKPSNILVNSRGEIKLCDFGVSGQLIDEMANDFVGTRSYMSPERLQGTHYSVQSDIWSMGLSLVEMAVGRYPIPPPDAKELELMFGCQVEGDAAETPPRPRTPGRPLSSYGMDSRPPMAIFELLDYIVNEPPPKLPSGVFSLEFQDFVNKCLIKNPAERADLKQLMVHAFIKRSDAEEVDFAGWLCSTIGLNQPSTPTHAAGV
As a reminder, the IC50 is the concentration needed to halve the response being measured. High values mean weaker potency, low ones greater potency. In the case of `Cc1c(Nc2ccccc2F)c2c(=O)n(CCO)cnc2n(C)c1=O` [Example 15, 5-(2-Fluorophenylamino)-3-(2-hydroxyethyl)-6,8-dimethylpyrido[2,3-d]pyrimidine-4,7(3H,8H)-dione], the IC50 was at least 16 nM. The same measure for `Cn1c(=O)c(Cl)c(Nc2ccc(I)cc2F)c2c(=O)n(C[C@H](O)CO)cnc21` [Example 7, (S)-6-Chloro-3-(2,3-dihydroxypropyl)-5-(2-fluoro-4-iodophenylamino)-8-methylpyrido[2,3-d]pyrimidine-4,7(3H,8H)-dione]: at most 5 nM. The same measure for `Cn1c(=O)c(F)c(Nc2ccc(I)cc2F)c2c(=O)n(C[C@@H](O)CO)cnc21` [Example 18, (R)-3-(2,3-Dihydroxypropyl)-6-fluoro-5-(2-fluoro-4-iodophenylamino)-8-methylpyrido[2,3-d]pyrimidine-4,7(3H,8H)-dione]: at most 5 nM. As for `Cn1c(=O)c(F)c(Nc2ccc(I)cc2F)c2c(=O)n(C[C@H](O)CO)cnc21` [Example 19, (S)-3-(2,3-Dihydroxypropyl)-6-fluoro-5-(2-fluoro-4-iodophenylamino)-8-methylpyrido[2,3-d]pyrimidine-4,7(3H,8H)-dione], the figure is at most 5 nM; as for `COC(=O)Cn1cnc2c(c(Nc3ccc(I)cc3F)cc(=O)n2C)c1=O` [Example 3, Methyl 2-(5-(2-fluoro-4-iodophenylamino)-8-methyl-4,7-dioxo-7,8-dihydropyrido[2,3-d]pyrimidin-3(4H)-yl)acetate], at least 16 nM. For the compound `Cn1c(=O)c(Cl)c(Nc2ccc(Br)cc2Cl)c2c(=O)n(CCCO)cnc21` [Example 36, 5-(4-Bromo-2-chlorophenylamino)-6-chloro-3-(3-hydroxypropyl)-8-methylpyrido[2,3-d]pyrimidine-4,7(3H,8H)-dione], the IC50 is at least 16 nM. The same measure for `CC(O)Cn1cnc2c(c(Nc3ccc(I)cc3F)c(Cl)c(=O)n2C)c1=O` (centres unmarked) [Example 40, 6-Chloro-5-(2-fluoro-4-iodophenylamino)-3-(2-hydroxypropyl)-8-methylpyrido[2,3-d]pyrimidine-4,7(3H,8H)-dione]: 5 to 15 nM; for `Cn1c(=O)c(F)c(Nc2ccc(NS(C)(=O)=O)cc2F)c2c(=O)n(C[C@@H](O)CO)cnc21` [Example 23, (R)—N-(4-(3-(2,3-Dihydroxypropyl)-6-fluoro-8-methyl-4,7-dioxo-3,4,7,8-tetrahydropyrido[2,3-d]pyrimidin-5-ylamino)-3-fluorophenyl)methanesulfonamide]: at least 16 nM. As for `Cn1c(=O)cc(Nc2ccc(Br)cc2F)c2c(=O)n(CCCO)cnc21` [Example 33, 5-(4-Bromo-2-fluorophenylamino)-3-(3-hydroxypropyl)-8-methylpyrido[2,3-d]pyrimidine-4,7(3H,8H)-dione], the figure is at least 16 nM; as for `CC(O)Cn1cnc2c(c(Nc3ccc(I)cc3F)cc(=O)n2C)c1=O` (centres unmarked) [Example 38, 5-(2-Fluoro-4-iodophenylamino)-3-(2-hydroxypropyl)-8-methylpyrido[2,3-d]pyrimidine-4,7(3H,8H)-dione], at least 16 nM. Consider `Cc1c(Nc2ccc(Br)cc2F)c2c(=O)n(CCO)cnc2n(C)c1=O` [Example 11, 5-(4-Bromo-2-fluorophenylamino)-3-(2-hydroxyethyl)-6,8-dimethylpyrido[2,3-d]pyrimidine-4,7(3H,8H)-dione], for which the 50% inhibitory concentration (IC50) is at least 16 nM.

`C#Cc1ccc(Nc2c(F)c(=O)n(C)c3ncn(C[C@H](O)CO)c(=O)c23)c(F)c1` [Example 21, (S)-3-(2,3-Dihydroxypropyl)-5-(4-ethynyl-2-fluorophenylamino)-6-fluoro-8-methylpyrido[2,3-d]pyrimidine-4,7(3H,8H)-dione] gave an IC50 of 5 to 15 nM. Compound `C#Cc1ccc(Nc2c(C)c(=O)n(C)c3ncn(C[C@@H](O)CO)c(=O)c23)c(F)c1` [Example 16, (R)-3-(2,3-Dihydroxypropyl)-5-(4-ethynyl-2-fluorophenylamino)-6,8-dimethylpyrido[2,3-d]pyrimidine-4,7(3H,8H)-dione] registered an IC50 of 5 to 15 nM. Take `CN(C)CCn1cnc2c(c(Nc3ccc(I)cc3F)cc(=O)n2C)c1=O` [Example 37, 3-(2-(Dimethylamino)ethyl)-5-(2-fluoro-4-iodophenylamino)-8-methylpyrido[2,3-d]pyrimidine-4,7(3H,8H)-dione]: the IC50 was at least 16 nM. For the compound `Cn1c(=O)c(Cl)c(Nc2ccc(I)cc2F)c2c(=O)n(CCO)cnc21` [Example 30, 6-Chloro-5-(2-fluoro-4-iodophenylamino)-3-(2-hydroxyethyl)-8-methylpyrido[2,3-d]pyrimidine-4,7(3H,8H)-dione], the IC50 was at most 5 nM. `Cn1c(=O)c(Cl)c(Nc2ccc(Br)cc2F)c2c(=O)n(CCCO)cnc21` [Example 34, 5-(4-Bromo-2-fluorophenylamino)-6-chloro-3-(3-hydroxypropyl)-8-methylpyrido[2,3-d]pyrimidine-4,7(3H,8H)-dione] registered an IC50 of 5 to 15 nM.

`C#Cc1ccc(Nc2c(F)c(=O)n(C)c3ncn(C[C@@H](O)CO)c(=O)c23)c(F)c1` [Example 22, (R)-3-(2,3-dihydroxypropyl)-5-(4-ethynyl-2-fluorophenylamino)-6-fluoro-8-methylpyrido[2,3-d]pyrimidine-4,7(3H,8H)-dione] returned a half-inhibitory concentration (IC50) of at most 5 nM.

Take `Cc1c(Nc2ccc(Br)cc2F)c2c(=O)n(C[C@H](O)CO)cnc2n(C)c1=O` [Example 9, (S)-5-(4-Bromo-2-fluorophenylamino)-3-(2,3-dihydroxypropyl)-6,8-dimethylpyrido[2,3-d]pyrimidine-4,7(3H,8H)-dione]: the IC50 was at least 16 nM. The same measure for `Cn1c(=O)c(F)c(Nc2ccc(I)cc2F)c2c(=O)n(OC[C@H](O)CO)cnc21` [Example 28, (R)-3-(2,3-Dihydroxypropoxy)-6-fluoro-5-(2-fluoro-4-iodophenylamino)-8-methylpyrido[2,3-d]pyrimidine-4,7(3H,8H)-dione]: at most 5 nM; for `Cn1c(=O)c(Cl)c(Nc2ccc(I)cc2F)c2c(=O)n(CCCO)cnc21` [Example 32, 6-Chloro-5-(2-fluoro-4-iodophenylamino)-3-(3-hydroxypropyl)-8-methylpyrido[2,3-d]pyrimidine-4,7(3H,8H)-dione]: at most 5 nM; for `Cn1c(=O)cc(Nc2ccc(I)cc2F)c2c(=O)n(CCCO)cnc21` [Example 31, 5-(2-Fluoro-4-iodophenylamino)-3-(3-hydroxypropyl)-8-methylpyrido[2,3-d]pyrimidine-4,7(3H,8H)-dione]: at most 5 nM. The same measure for `Cn1c(=O)c(Cl)c(Nc2ccc(Br)cc2F)c2c(=O)n(C[C@@H](O)CO)cnc21` [Example 29, (R)-5-(4-Bromo-2-fluorophenylamino)-6-chloro-3-(2,3-dihydroxypropyl)-8-methylpyrido[2,3-d]pyrimidine-4,7(3H,8H)-dione]: 5 to 15 nM; for `Cc1c(Nc2ccc(Br)cc2F)c2c(=O)n(C[C@@H](O)CO)cnc2n(C)c1=O` [Example 10, (R)-5-(4-Bromo-2-fluorophenylamino)-3-(2,3-dihydroxypropyl)-6,8-dimethylpyrido[2,3-d]pyrimidine-4,7(3H,8H)-dione]: at least 16 nM. `Cc1c(Nc2ccc(I)cc2F)c2c(=O)n(C(CO)CO)cnc2n(C)c1=O` [Example 43, 3-(1,3-Dihydroxypropan-2-yl)-5-(2-fluoro-4-iodophenylamino)-6,8-dimethylpyrido[2,3-d]pyrimidine-4,7(3H,8H)-dione] showed a 50% inhibitory concentration (IC50) of 5 to 15 nM.

For `C#Cc1ccc(Nc2c(C)c(=O)n(C)c3ncn(C[C@H](O)CO)c(=O)c23)c(F)c1` [Example 44, (S)-3-(2,3-Dihydroxypropyl)-5-(4-ethynyl-2-fluorophenylamino)-6,8-dimethylpyrido[2,3-d]pyrimidine-4,7(3H,8H)-dione], the IC50 lay in the range of 5 to 15 nM.

`Cn1c(=O)cc(Nc2ccc(Br)cc2Cl)c2c(=O)n(CCCO)cnc21` [Example 35, 5-(4-Bromo-2-chlorophenylamino)-3-(3-hydroxypropyl)-8-methylpyrido[2,3-d]pyrimidine-4,7(3H,8H)-dione] displayed an IC50 of at least 16 nM. The same measure for `Cn1c(=O)cc(Nc2ccc(I)cc2F)c2c(=O)n(Cc3ccccc3)cnc21` [Example 42, 3-Benzyl-5-(2-fluoro-4-iodophenylamino)-8-methylpyrido[2,3-d]pyrimidine-4,7(3H,8H)-dione]: at least 16 nM. The same measure for `Cn1c(=O)c(F)c(Nc2ccc(I)cc2F)c2c(=O)n(C(CO)CO)cnc21` [Example 25, 3-(1,3-Dihydroxypropan-2-yl)-6-fluoro-5-(2-fluoro-4-iodophenylamino)-8-methylpyrido[2,3-d]pyrimidine-4,7(3H,8H)-dione]: at most 5 nM; for `Cc1c(Nc2ccc(I)cc2F)c2c(=O)n(CCO)cnc2n(C)c1=O` [Example 14, 5-(2-Fluoro-4-iodophenylamino)-3-(2-hydroxyethyl)-6,8-dimethylpyrido[2,3-d]pyrimidine-4,7(3H,8H)-dione]: at most 5 nM.
